US9096585B2 (Icahn School of Medicine at Mount Sinai, priority 2010, dated 2015)
“Also recorded” adds a separate entry of the source. Like-named read-outs stand apart in the source and are kept apart here.

Tests used:
A549 cells [1] = conditions: human, 24 h
Sendai Virus 52 = experiment: Sendai virus replication in A549 cells; type: cell-based; conditions: A3 10 μM, 24 h
HIV-1 (NL4-3) = experiment: microbe, parasite or virus in culture; type: cell-based
[2] = Cell viability (cytotoxicity) in A549 cells; conditions: human, A549 cells
Sindbis virus = Sindbis virus replication in A549 cells; type: cell-based; conditions: 10 μM A3 or less
Hepatitis C virus = type: cell-based; conditions: 10 μM A3 or less
[3] = test system: cellular gene expression (Renilla luciferase)
cellular 5S rRNA = conditions: concentration of 2 μM
[4] = test system: influenza viral proteins (NP, M1, and M2); type: cell-based, influenza A/WSN/33 virus; conditions: A549; A/WSN/33; in the presence of A3
[5] = target: Human dihydroorotate dehydrogenase (DHODH) (Homo sapiens, UniProt Q02127); experiment: In vitro colorimetric DHODH assay (DCIP reduction); conditions: final concentration of 10 μM; 60 mins
Chain of Human dihydroorotate dehydrogenase (DHODH) (Q02127 whole entry): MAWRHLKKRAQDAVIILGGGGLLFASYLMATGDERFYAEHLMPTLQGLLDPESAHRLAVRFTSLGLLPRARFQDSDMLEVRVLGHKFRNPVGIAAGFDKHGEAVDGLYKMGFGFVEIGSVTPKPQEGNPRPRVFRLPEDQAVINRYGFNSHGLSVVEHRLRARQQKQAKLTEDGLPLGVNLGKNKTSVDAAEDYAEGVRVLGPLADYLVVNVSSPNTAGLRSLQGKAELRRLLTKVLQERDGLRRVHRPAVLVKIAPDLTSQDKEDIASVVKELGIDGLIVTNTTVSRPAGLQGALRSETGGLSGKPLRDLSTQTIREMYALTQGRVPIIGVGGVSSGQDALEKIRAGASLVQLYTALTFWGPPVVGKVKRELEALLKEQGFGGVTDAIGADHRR

influenza virus [6] = type: cell-based; conditions: primary screen
[7] = test system: influenza virus polymerase (PB1, PB2, PA, NP); type: cell-based, influenza A/WSN/33 virus; conditions: for inhibition of viral RNA polymerase activity: mini-genome reporter construct
[8] = test system: Vesicular Stomatitis virus; type: cell-based; conditions: A549
in vitro [9] = conditions: mouse
influenza virus [10] = experiment: Viral entry assay, influenza virus; type: cell-based; conditions: viral entry assays
influenza A/WSN/33 virus = experiment: Plaque-reduction assays with influenza A/WSN/33 virus in cell lines of different species, with or without pyrimidine supplements
[11] = test system: human adenovirus 5 (hAd5); type: cell-based; conditions: 10 μM A3 or less
Vaccinia Virus (NYVAC) = type: cell-based; conditions: 10 μM A3 or less
in vitro [12] = conditions: human
[13] = test system: influenza A/PR/8/34 virus v-, c-, and mRNA (NA segment); conditions: concentration of 2 μM
A549 cells [14] = experiment: Cell viability (cytotoxicity) in A549 cells; conditions: A549
VSV = type: cell-based, Vesicular Stomatitis virus; conditions: viral entry assays
retrovirus MLV = experiment: Viral entry assay, retrovirus MLV; type: cell-based; conditions: viral entry assays
in vitro [15] = conditions: human; remark: listed apart in the source
Newcastle Disease virus = type: cell-based; conditions: concentration of 11.2 μM; NDV/B1; A549
[16] = read-out: CC50 (A549), 24 hour period, Table 3

Cc1[nH]c2ccc(-c3nnc(SCC(=O)N4CCOCC4)o3)cc2c1C [Compound A3-5, 2-(5-(2,3-dimethyl-1H-indol-5-yl)-1,3,4-oxadiazol-2-ylthio)-1-morpholinoethanone]
CC10 (A549) (A549 cells [1]): 10.2 µM

Cc1[nH]c2ccc(-c3nnc(SCC(=O)N4CCCC4)o3)cc2c1C [Compound A3]
inhibition of Sendai virus (SV52) (Sendai Virus 52): 3 logs | sensitivity of HIV-1 (HIV-1 (NL4-3); 10 μM A3 or less): sensitive | IC50 (HIV-1 (NL4-3); Human immunodeficiency virus 1, NL43, TZM-bl, 48 h, read-out: IC50 against HIV-1 (NL4-3)): 0.205 µM | time of addition at which compound remains active (HIV-1 (NL4-3); time-of-addition, TZM-bl, HIV-1 MOI=0.1, A3 at 1 μM): ≤ 12 h after infection | CC50 at 24 h [2]: 268 µM | inhibition of Sindbis virus (Sindbis virus): 2 logs | inhibition of hepatitis C virus (Hepatitis C virus): 2 logs | cellular gene expression as monitored by Renilla luciferase activity ([3]; A3 at its CC10): without affecting cellular gene expression | overall host cell replication machinery (renilla luciferase control plasmid expression) ([3]; all A3 concentrations (0.4-30 μM)): not affected | levels of cellular 5S rRNA (cellular 5S rRNA): without decreasing levels | levels of viral proteins [4]: reduced levels of viral proteins | DHODH activity in vitro [5]: Inhibits DHODH Activity | luminescence signal of influenza virus inducible firefly luciferase reporter (influenza virus [6]): no luminescence detectable | inhibition of influenza virus polymerase function ([7]; compared with the DMSO control, A3 at its CC10): 98% | inhibition of viral RNA polymerase activity ([7]; at 10 μM): up to 99% | potency relative to ribavirin ([7]; same degree of inhibition by 2 μM A3 as with 100 μM ribavirin): 50 times | titer of vesicular stomatitis virus decreased ([8]; 10 μM A3 or less): 5 logs | CC50 (in vitro [9]): > 100 µM | viral entry of influenza virus (influenza virus [10]): did not inhibit viral entry | inhibition of viral replication (influenza A/WSN/33 virus): strong inhibition; also recorded: complete inhibition | inhibition of viral replication (influenza A/WSN/33 virus; baby hamster kidney (BHK) cells and pig kidney (PK-15) cells, A3 10 μM): partially inhibited | effect of orotic acid on the inhibition by A3 (influenza A/WSN/33 virus; both A549 and MDCK cells): reverse the inhibition | effect on viral replication (influenza A/WSN/33 virus; chicken fibroblast (DF-1) cells, A3 10 μM): no effect | sensitivity of adenovirus [11]: sensitive | CC10 (A549) (A549 cells [1]): 38 µM | sensitivity of vaccinia virus (Vaccinia Virus (NYVAC)): sensitive | CC50 (in vitro [12]): > 100 µM | production of all three viral RNA species (v-, c-, and mRNA) [13]: fully inhibit

COc1ccc(-c2nnc(SCC(=O)N3CCCC3)o2)cc1 [Compound A3-8, 2-(5-(4-methoxyphenyl)-1,3,4-oxadiazol-2-ylthio)-1-(pyrrolidin-1-yl)ethanone]
CC10 (A549) (A549 cells [1]): 11.8 µM

COc1cc2c(O)c3c(c(-c4ccc5c(c4)OCO5)c2cc1OC)C(=O)OC3 [Compound C2]
CC50 (A549 cells [14]): 131 µM | entry of VSV (VSV): inhibited | viral entry of influenza virus (influenza virus [10]): inhibited | entry of the retrovirus MLV (retrovirus MLV): unaffected

O=C(CSc1nnc(-c2cc3ccccc3o2)o1)N1CCCC1 [Compound A3-9, 2-(5-(benzofuran-2-yl)-1,3,4-oxadiazol-2-ylthio)-1-(pyrrolidin-1-yl)ethanone]
CC10 (A549) (A549 cells [1]): 10.9 µM

CN(Cc1ccccc1)c1nc(-c2ccc([N+](=O)[O-])cc2)cs1 [Compound A35-1]
CC10 (A549) (A549 cells [1]): 10.8 µM

Nc1nc(-c2ccc(Cl)cc2)cs1 [Compound A35-3]
CC10 (A549) (A549 cells [1]): 11.4 µM

O=C(CSc1nnc(-c2cccnc2)o1)N1CCCC1 [Compound A3-11, 2-(5-(pyridin-3-yl)-1,3,4-oxadiazol-2-ylthio)-1-(pyrrolidin-1-yl)ethanone]
CC10 (A549) (A549 cells [1]): 32.6 µM

NC(=O)c1ncn([C@@H]2O[C@H](CO)[C@@H](O)[C@H]2O)n1 [ribavirin, reference compound]
inhibition of viral RNA polymerase activity ([7]; at 100 μM): 90%

CCN(CC)C(=O)CSc1nnc(-c2ccc3[nH]c(C)c(C)c3c2)o1 [Compound A3-2, 2-(5-(2,3-dimethyl-1H-indol-5-yl)-1,3,4-oxadiazol-2-ylthio)-N,N-diethylacetamide]
CC10 (A549) (A549 cells [1]): 29 µM

Cc1[nH]c2ccc(-c3nnc(SCC(=O)N(C(C)C)C(C)C)o3)cc2c1C [Compound A3-4, 2-(5-(2,3-dimethyl-1H-indol-5-yl)-1,3,4-oxadiazol-2-ylthio)-N,N-diisopropylacetamide]
CC10 (A549) (A549 cells [1]): 10.7 µM

O=C(CSc1nnc(-c2cc3ccccc3[nH]2)o1)N1CCCC1 [Compound A3-7, 2-(5-(1H-indol-2-yl)-1,3,4-oxadiazol-2-ylthio)-1-(pyrrolidin-1-yl)ethanone]
CC10 (A549) (A549 cells [1]): 15.2 µM

O=C(CSc1nnc(-c2ccncc2)o1)N1CCCC1 [Compound A3-12, 2-(5-(pyridin-4-yl)-1,3,4-oxadiazol-2-ylthio)-1-(pyrrolidin-1-yl)ethanone]
CC10 (A549) (A549 cells [1]): 11.5 µM

CCN(CC)S(=O)(=O)c1ccc(-c2nnc(SCC(=O)N3CCCC3)o2)cc1 [Compound A3-1, N,N-diethyl-4-(5-(2-oxo-2-(pyrrolidin-1-yl)ethylthio)-1,3,4-oxadiazol-2-yl)benzenesulfonamide]
CC10 (A549) (A549 cells [1]): 17.3 µM

Cc1[nH]c2ccc(-c3nnc(SCC(=O)N4CCCCCC4)o3)cc2c1C [Compound A3-6, 1-(azepan-1-yl)-2-(5-(2,3-dimethyl-1H-indol-5-yl)-1,3,4-oxadiazol-2-ylthio)ethanone]
CC10 (A549) (A549 cells [1]): 18.2 µM

Cc1[nH]c2ccc(-c3nnc(SCC(=O)N4CCc5ccccc54)o3)cc2c1C [Compound A3-3, 2-(5-(2,3-dimethyl-1H-indol-5-yl)-1,3,4-oxadiazol-2-ylthio)-1-(indolin-1-yl)ethanone]
CC50 (A549 cells [14]; [16]): 65 µM | CC10 (A549) (A549 cells [1]): 8.5 µM

CN(c1ccc(O)cc1)c1nc(-c2ccc(Cl)cc2)cs1 [Compound A35-4]
CC50 (A549 cells [14]; [16]): 30 µM | CC10 (A549) (A549 cells [1]): 6 µM

CN(C)c1nc(-c2ccc(Br)cc2)cs1 [Compound A35-5]
CC50 at 24 h (in vitro [15]): 242 µM | CC10 (A549) (A549 cells [1]): 17.8 µM

Cc1oncc1C(=O)Nc1ccc(C(F)(F)F)cc1 [Leflunomide, reference compound]
effect on influenza virus replication (influenza A/WSN/33 virus; A549 and MDCK cells, concentration of 10 μM): No inhibition

CN(c1nc(-c2ccc(Br)cc2)cs1)C1CCS(=O)(=O)C1 (stereo not shown) [Compound A35]
inhibition of NDV (Newcastle Disease virus): less significant inhibition | inhibition of VSV ([8]; concentration of 11.2 μM): less significant inhibition | CC50 at 24 h (in vitro [15]): 110 µM | viral entry of influenza virus (influenza virus [10]): did not affect the entry step | CC10 (A549) (A549 cells [1]): 11.2 µM

CN(c1nc(-c2ccccc2)cs1)C1CCS(=O)(=O)C1 (stereo not shown) [Compound A35-2]
CC10 (A549) (A549 cells [1]): 12.2 µM
